System: inflamed ears of experimental mice
Test: Anti-inflammatory activity on ethyl phenyl propyolate-inflamed mice ears
Assay type: in vivo
Procedure: The test for anti-inflammatory activity can be done on lab mice by applying ethyl phenyl propyolate on mice ears at a concentration of 1 mg per ear to induce inflammation. The fullest swollen ear can be observed 1 hour after the application, then the tested extracts and reference compound, dexamethasone, are applied onto the inflamed ears at a dose of 0.05 mg/ear. The reduction in the thickness of the ears in comparison with the control group indicates anti-inflammatory activity, as shown in Table 1.

**Q.** How did the “Percentage reduction of inflamed ears” value (0 min, ethyl phenyl propyolate 1 mg per ear) turn out when `C[C@@H]1C[C@H]2[C@@H]3CCC4=CC(=O)C=C[C@]4(C)[C@@]3(F)[C@@H](O)C[C@]2(C)[C@@]1(O)C(=O)CO` [Anti-inflammatory, Dexamethasone] was run?
**A.** 0%

**Q.** And the “Percentage reduction of inflamed ears” value (60 min after inducer (fullest swelling, time of application), 0.05 mg/ear)?
**A.** 54.253%

**Q.** And the “Percentage reduction of inflamed ears” value (90 min, 0.05 mg/ear topical)?
**A.** 42.533%

**Q.** What about the “Percentage reduction of inflamed ears” value (120 min, 0.05 mg/ear topical) of the same compound?
**A.** 38.752%

**Q.** And the “Percentage reduction of inflamed ears” value (240 min, 0.05 mg/ear topical)?
**A.** 25.142%

**Q.** And the “Percentage reduction of inflamed ears” value (360 min, 0.05 mg/ear topical)?
**A.** 13.422%

**Q.** And the “Percentage reduction of inflamed ears” value (480 min, 0.05 mg/ear topical)?
**A.** 11.531%
